# Laboratory results from publication PMC12297016 (Iranian Journal of Pharmaceutical Research : IJPR, 2025).
# Assays:
# [1] = molecular target: T1, recombinant human matrix metalloproteinase 9 (rhMMP-9) (Homo sapiens, UniProt P14780); experiment: Surface plasmon resonance (SPR) binding to immobilized rhMMP-9; conditions: 37°C, 5-40 µM
# T1 construct: amino acid residues from 107 to 707, consisted of the catalytic domain (Phe107 to Gly223); His-tag; made in house; host or cells: Escherichia coli BL21 (DE3), vector pET21a(+)
# From the text: A dual-flow channel MP-SPR Navi 210A analyzer (BioNavis Ltd., Tampere-region, Finland) was used to evaluate SPR kinetic parameters on gold chips (BioNavis Ltd., Finland). A solution of both EDC/NHS ((N-(3-dimethylaminopropyl)-N′-ethylcarbodiimide hydrochloride) (0.2 M) and NHS (N-hydroxysuccinimide) (0.05 M)) was employed for the activation of […] carboxylic groups. Immobilization of the rMMP-9 enzyme on the CMD Au chip was accomplished by a standard amine coupling protocol. For blocking unreacted sites, ethanolamine–HCl (1 M, pH 8.5) reagent was used.
# The SPR technique, a current method for examining the interaction between ligand and protein, was employed in this research. As presented in Figure 6, association (Ka) and dissociation (Kd) constants were evaluated through sensorgrams (RU vs. time). Five […] concentrations for each of the three natural compounds were used (5, 10, 20, 30, 40 µM).
# The equilibrium constant KD, which evaluates the affinity of a ligand to a protein, was determined using the formula: =Kd/Ka . A lower value of the KD constant indicates a higher interaction affinity between the protein and ligand.
# [2] = molecular target: T1, recombinant human matrix metalloproteinase 9 (rhMMP-9); experiment: Protease activity assay of rhMMP-9 with casein as substrate; assay type: biochemical; conditions: for α: KI = α × Ki; for type of inhibition: Lineweaver-Burk and secondary plots, mixed type; for IC50: casein degradation assay, inhibitor 0 to 70 µM, read-out: IC50 of rhMMP-9 activity inhibition; for Ki: dissociation constant of EI complex, from secondary plot of slope against [I]; for αKi (KI): dissociation constant of ESI complex, from Dixon plot of 1/V'max against [I]; for K m: casein substrate
# Protocol: To determine the hydrolyzing activity of rhMMP-9, casein was used as a substrate. A casein solution (1% w/v) was added to the extracted and purified rhMMP-9, and the final volume was adjusted to 1 mL with Tris buffer (pH 7). The expression product and substrate mix were incubated with shaking for 5 minutes at 37°C. To stop the process, 1 mL of cold trichloroacetic acid (TCA, 15%) was added to the mixture. This mixture was then kept at -20°C for 10 minutes and centrifuged twice (8000 g, 5 min, 4°C) to separate soluble peptides. The pellet was discarded, and the absorbance of the supernatant soluble peptides fraction was evaluated at 280 nm. All spectrophotometric measurements were accompanied by a blank assay in the absence of the enzyme. Enzyme activity was calculated from the tyrosine standard curve and expressed as mean ± SD in units of [µmol/min] after at least five repeats ([22]). SPSS software version 9 was used for data interpretation, and all graphs were drawn and kinetic parameters calculated using an Excel spreadsheet software program. The Quest Graph IC50 Calculator was used for the calculation of IC50 values.
# A cell-free casein degradation-based assay was employed to evaluate the influence of ellagitannins on the catalytic activity of the rhMMP-9 enzyme. By adding various fixed quantities of casein as a substrate and a fixed concentration of enzyme, the enzyme activity was determined in the presence of different concentrations of ellagitannins (ranging from 0 to 70 µM). The rate of tyrosine production by the protease activity of rhMMP-9 was assessed based on a calibration curve over 1 minute, which refers to enzyme activity.
# To examine the effects of inhibitors on the kinetic parameters of rhMMP-9, Michaelis-Menten saturation curves and Lineweaver-Burk plots were drawn in the presence of various concentrations of inhibitors (5 - 30 µM) and substrate range (0 - 0.3%) (Figure 4).
# The first of these is a Dixon plot of 1/Vʹmax against the concentration of inhibitor [I], from which the value of -αKi as the x-intercept can be determined (Figure 5A - C). The second is the slope of the primary plot (from the Lineweaver-Burk plot) against the concentration of inhibitor [I], from which the value of -Ki as the x-intercept can be determined (Figure 5D - F).
# T1 sequence (P14780 107-707): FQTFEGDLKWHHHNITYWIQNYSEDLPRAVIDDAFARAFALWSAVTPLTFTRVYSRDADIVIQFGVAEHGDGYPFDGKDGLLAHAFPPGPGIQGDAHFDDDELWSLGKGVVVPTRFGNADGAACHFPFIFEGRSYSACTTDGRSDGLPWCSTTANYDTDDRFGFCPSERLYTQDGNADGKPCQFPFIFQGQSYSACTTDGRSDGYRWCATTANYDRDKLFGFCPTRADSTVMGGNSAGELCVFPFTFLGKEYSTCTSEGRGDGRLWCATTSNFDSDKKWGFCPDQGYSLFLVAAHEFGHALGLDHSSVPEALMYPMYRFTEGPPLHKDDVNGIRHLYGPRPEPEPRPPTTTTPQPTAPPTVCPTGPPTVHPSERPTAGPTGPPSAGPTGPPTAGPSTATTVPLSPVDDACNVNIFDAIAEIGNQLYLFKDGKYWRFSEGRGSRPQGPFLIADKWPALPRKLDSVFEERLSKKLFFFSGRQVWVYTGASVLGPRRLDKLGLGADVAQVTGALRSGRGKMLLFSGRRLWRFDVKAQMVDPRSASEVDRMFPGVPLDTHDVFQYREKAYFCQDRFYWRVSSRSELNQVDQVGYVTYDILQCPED
Kd [1],α [2],type of inhibition [2],IC50 [2],Ki [2],αKi (KI) ([2]; in µM),reduction of catalytic activity ([2]; high concentration (60 µM)),V max ([2]; inhibitor 15 µM),K m ([2]; inhibitor 15 µM),V max ([2]; inhibitor 30 µM),K m ([2]; inhibitor 30 µM),αKi (KI) [2],extent of inhibition of catalytic activity at high concentrations [2],V max ([2]; inhibitor 5 µM),K m ([2]; inhibitor 5 µM),Compound
113 µM,1.11,competitive-non-competitive pattern,17.1 µM,24.9 µM,27.57,90%,0.093 ± 0.005 µmol/min,0.03 ± 0.002%,0.078 ± 0.004 µmol/min,0.03 ± 0.002%,–,–,–,–,"O=c1oc2c(O)c(O)cc3c(=O)oc4c(O)c(O)cc1c4c23 [EA, ellagic acid]"
67 µM,0.25,non-competitive-uncompetitive pattern,33.3 µM,12 µM,–,–,0.04 ± 0.002 µmol/min,0.1 ± 0.005%,–,–,3.03 µM,entirely inhibit,0.120 ± 0.006 µmol/min,0.085 ± 0.004%,"O=c1oc2cc(O)ccc2c2ccc(O)cc12 [Uro A, urolithin A]"
43 µM,0.13,non-competitive-uncompetitive pattern,13.2 µM,22.5 µM,–,–,0.033 ± 0.002 µmol/min,0.020 ± 0.001%,–,–,3.02 µM,entirely inhibit,0.079 ± 0.004 µmol/min,0.030 ± 0.002%,"O=c1oc2cc(O)ccc2c2ccccc12 [Uro B, urolithin B]"
